From patent publication EP4178959B1, “NITROGEN HETEROCYCLIC CYTOKININ DERIVATIVES, COMPOSITIONS CONTAINING THESE DERIVATIVES AND USE THEREOF” (Univerzita Palackého v Olomouci, priority 2020, dated 2022)

Legend:
Mouse fibroblasts NIH3T3 = assay: Calcein AM cytotoxicity assay, NIH3T3 cells; conditions: read-out: Cytotoxicity IC50, NIH-3T3; Calcein AM, 72 hours
Protocol: (§1) All compound concentrations were examined in duplicates. […] Zero cytotoxicity is a basic prerequisite for the use of these substances in cosmetical applications. To assess the antitumor activity, the toxicity of new derivatives on panels containing cell lines of different histogenic and species origin was tested (Table 5). […] The compounds listed in Table 5 can be divided into 2 groups.
(§2) The first group contains "classical cytokinins" represented by 6-substituted purines (their effects are already known). The second group includes novel 2-fluoro-N6-substituted-9-(2-oxacycloalkyl)-9H-purine-6-amine derivatives. […] Low cytotoxicity (high IC50 value) of the compounds is the basic prerequisite for cosmetic and medical applications. […] Table 5: Cytotoxicity of novel compounds for different normal cell lines tested / IC50 (µmol/L)

[1] = test system: BJ (human foreskin fibroblasts); assay: Calcein AM cytotoxicity assay, BJ cells; conditions: read-out: Cytotoxicity IC50, BJ; Calcein AM, 72 hours
Protocol: as §1, §2

[2] = test system: mouse immortalized bone marrow macrophages B10A.4; assay: Calcein AM cytotoxicity assay, B10A.4 cells; conditions: read-out: Cytotoxicity IC50, B10A.4, first column headed B10A.4, 72 hours
Protocol: as §1, §2

excised wheat leaf tips = assay: Senescence inhibition on winter wheat leaf segments (chlorophyll retention); set-up: species or system Triticum aestivum cv. Hereward; conditions: for Concentration with highest activity: retention of chlorophyll; for Activity (%) [10^-4mol.l^-1 KTHP = 100%] / Emax: retention of chlorophyll in excised wheat leaf tips, 96 h in the dark, at concentration with highest activity; for Emax: Triticum aestivum, foliar, read-out: Activity (%) [10^-4mol.l^-1 KTHP = 100%]
Protocol: Seeds of winter wheat, Triticum aestivum cv. Hereward, were washed under running water for 24 hours and then sown on vermiculite soaked with the Knop's solution. They were placed in the grow chamber at 25 °C with a 16/8 h light period at 50 μmol.m^-2.s^-1. After 7 days, the first leaf was fully developed and the second leaf had started to grow. A tip section of the first leaf, approximately 35 mm long, was removed from 5 seedlings and trimmed slightly to a combined weight of 100 mg. The basal ends of the five leaf tips were placed in the wells of a microtiter polystyrene plate containing 150 μl of the solution of the tested compound each. The entire plate was inserted into a plastic box lined with paper tissues soaked with distilled water to prevent leaf sections from drying out. […] The absorbance of the extract was recorded at 665 nm. In addition, chlorophyll extracts from fresh leaves and leaf tips incubated in deionised water were measured. From the obtained data, the concetration with the highest activity was selected for each compound tested. Relative activity of the compound at this concentration was calculated (Table 7). […] The values shown are means of five replicates and the whole experiment was repeated twice. The compounds to be tested were dissolved in dimethylsulfoxide (DMSO) and the solution brought up to 10^-3 M with distilled water. […] The compounds listed in Table 7 can be divided into 2 groups. The first group contains "classical 6,9-disubstituted purines (KTHP as a control)" known in prior art. […] Table 9: […]

[3] = Calcein AM cytotoxicity assay, NIH3T3 cells; conditions: mouse
Protocol: as §1, §2

[4] = Calcein AM cytotoxicity assay, BJ cells; conditions: human
Protocol: as §1, §2

Arabidopsis thaliana [5] = assay: Arabidopsis root growth inhibition test; assay type: in vivo, Arabidopsis thaliana (ecotype Columbia); conditions: for root growth inhibition (in words): compared to WT, 7-d-old seedlings; for Primary root length 7-d, WT = 100%: 7-d-old plants
Protocol: Arabidopsis thaliana seeds (ecotype Columbia) were sterilized with 70% ethanol and 0.1% Triton X-100 and then washed 4 times with sterile water. The seeds were transferred to Petri dishes on a solid medium consisting of MS (2.2 g l^-1), sucrose (10 g l^-1), agar (8 g l^-1), and supplemented with cytokinins or DMSO control (0.1% DMSO). After incubation for 3 days in darkness at 4°C, the seeds were germinated and grown horizontally in an environmental chamber at 22/20 °C under an 8 h light (120 µmol photons m^-2 s^-1)/16 h dark cycle for 4 days. 7-d-old seedling were used for measurements of the primary root length. At least 35 plants were used for each treatment and each treatment was repeated in at least 5 individual Petri dishes. The length of the primary root was evaluated using Scion Image software (Scion Corporation, Frederick, MD, USA). All measured parameters were statistically evaluated between untreated and treated plants according to Student's unpaired t-test. […] Tab. Inhibition of the primary root growth in 7-d-old Arabidopsis plants. 100% = WT plants, DMSO treated.

[6] = Calcein AM cytotoxicity assay, B10A.4 cells; conditions: mouse; for CC50 at 72 h: b10a.4 macrophages
Protocol: as §1, §2

[7] = test system: sweet peppers, cucumbers and tomatoes; assay: Field trials with vegetables, overall; assay type: in vivo; conditions: 10 - 100 nM
Protocol: Besides, plants were treated with a commercial fertilizer (type Kristalon) with optimal ratio of N,P,K and micronutrients. Dosage of 2-fluoro-6-[(3-methoxylbenzyl)amino]-9-(tetrahydro-2H-pyran-2-yl)-9H-purine was in the range between 10 - 100 nM, but usually 50 or 100 nM from re-planting to the end of vegetation once a week 500 ml to each plant (Table 10). The application of the compound was performed 1-3 times per week (according to the cultivation system - field or hydroponic). Stock solution was prepared in the concentration range 1-5 µM, then dosing into hydroponic system, watering with fertilizer, or in concentration […] in final fertilizer for use in soil conditions. Number of replicates was 10 / 12 plants from each variant (including control).
In case of cucumbers, fruit weight harvested per plant varied from 99,6 / 110,0 %, number of fruits were 102,3 / 106,8 % compared to control. Fruit weight from 1 plant varied from 100,0 to 124,7 % and number of fruits varied from 92,9 to 143,2 %, compared to control, after application of the tested compound to sweet peppers. In most trials, the size of fruits increased after the application of the tested compound.

Zea mays seedlings = assay: Effect on development of Zea mays seedlings (hydroponic); assay type: in vivo, Zea mays cv. CELLUX; conditions: for Root dry mass (%) [4 x 10^-8 mol.l^-1 Kin = 100%] / Shoot dry mass (%) [10^-6 mol.l^-1 Kin = 100%]: at concentration with highest activity
Protocol: Maize seeds (Zea mays cv. CELLUX) were imbibed in tap water and germinated on a wetted filter paper. After 3 days, the germinated seedlings were transferred to aerated hydroponic tanks filled with Hoagland's nutrient solution. The plants were grown in an environmental chamber with 16 h light period (250 μE m^-2 s^-1) at 27°C and 8 h dark period at 20°C. Tested compounds diluted in DMSO were added to nutrient solution immediately when seedlings were nested in the tanks or after two additional days of cultivation. Control plants were grown in parallel with addition of corresponding amount of DMSO (up to 0.01%). Root and leaf tissues of ten plants were harvested at different time points after the application of the compounds, immediately frozen in liquid nitrogen and used for cytokinin content and transcript level analysis. Length of primary root and the first leaf were determined with ruler on sets of twelve plants, each cultivated in the independent tank (for every cytokinin application repeated ten times). Dry mass of root system and the aerial part was determined after cutting off the kernel and desiccation in dryer for two days at 60°C. […] Fig. 4) and up to 1 micromolar concentration when more seedlings were in the solution (approx. 50 seedlings per 1 liter; Fig. 5). […] Table 7: […]

Arabidopsis thaliana [8] = assay: Effect on the root proliferation of Arabidopsis thaliana; assay type: in vivo, Arabidopsis thaliana (ecotype Columbia); conditions: for Concentration with highest activity: number of lateral roots; for Activity (%) [10^-8 mol.l^-1 Kin = 100%]: number of lateral roots (% of control), at concentration with highest activity
Protocol: Arabidopsis thaliana seeds (ecotype Columbia) were sterilized with 70% ethanol and 0.1% Triton X-100 and then washed with 70% ethanol containing 0.01% Triton X-100. Then the seeds were transferred to vertical square petri dishes (11 seeds per dish) on a solid medium consisting of MS (2.15 g/l), MES (0.5 g/l), sucrose (1 g/l), agar (11 g/l), buffered to pH 5.8, and various concentrations of tested compounds. The compounds were dissolved in DMSO, thus 0.05% DMSO was used as a control solution. After incubation for 3 days in darkness at 4°C, the seeds were germinated and grown in an environmental chamber (fluorescence light intensity 150 µE m^-2 s^-1, humidity 55%, 16 h day/8 h night, 22°C). […] The number of lateral roots was scored under a stereomicroscope. […] In addition, compounds with tetrahydropyranyl protection at N9 slightly increase the number of emerged lateral roots (Fig 3C). […] Table 6: […]

[9] = tested concentration 0.04 µmol.l^-1
[10] = tested concentration 1 µmol.l^-1
[11] = tested concentration 25 µmol.l^-1
[12] = Cytotoxicity IC50, B10A.4, first column headed B10A.4

SMILES | CC50 (Mouse fibroblasts NIH3T3) [µM] | CC50 [1] [µM] | CC50 [2] [µM] | Concentration with highest activity (excised wheat leaf tips) | Activity (%) [10^-4mol.l^-1 KTHP = 100%] (excised wheat leaf tips) | IC50 at 72 h [3] [µM] | IC50 at 72 h [4] [µM] | root growth inhibition (in words) (Arabidopsis thaliana [5]) | Primary root length 7-d, WT = 100% (Arabidopsis thaliana [5]; [9]) | Primary root length 7-d, WT = 100% (Arabidopsis thaliana [5]; [10]) | Primary root length 7-d, WT = 100% (Arabidopsis thaliana [5]; [11]) | IC50 at 72 h [6, 12] [µM] | Root dry mass (%) [4 x 10^-8 mol.l^-1 Kin = 100%] (Zea mays seedlings) | Shoot dry mass (%) [10^-6 mol.l^-1 Kin = 100%] (Zea mays seedlings) | Concentration with highest activity (Zea mays seedlings; root dry mass) | Concentration with highest activity (Zea mays seedlings; shoot dry mass) | Emax (excised wheat leaf tips) [%] | Concentration with highest activity (Arabidopsis thaliana [8]) | Activity (%) [10^-8 mol.l^-1 Kin = 100%] (Arabidopsis thaliana [8]) | other results
Oc1cccc(CNc2nc(F)nc3c2ncn3C2CCCO2)c1O (stereo not drawn) [Compound 29] | > 167 | > 167 | > 167 | 10^-4 mol.l^-1 | 15 (±5) % |  |  |  |  |  |  |  |  |  |  |  |  |  |  | 
COc1cccc(CNc2nc(F)nc3c2ncn3C2CCCCO2)c1 (stereo not drawn) [Compound 67, 2-Fluoro-6-[(3-methoxybenzyl)amino]-9-(tetrahydro-2H-pyran-2-yl)-9H-purine] |  |  |  |  |  | > 167 | > 167 | did not cause significant root inhibition | 96.9 (±2.4) % | 50.3 (±1.1) % | 34.9 (±2.1) % | > 167 | 261.2 (± 20) % | 127.6 (± 9) % | 10^-7 mol.1^-1 | 10^-6 mol.1^-1 | 195 | 10^-5 mol.l^-1 |  | effect on fertility term elongation of vegetables, number of fruits, protection against abiotic stress (in words) [7]: positive effect; effect on cell division and organ growth (in words) (Zea mays seedlings; root system and aerial part of seedlings): Positive effect; effect on elongation of primary root (in words) (Arabidopsis thaliana [8]; MS media, range of concentration 0.04 to 5 µM): does not have negative effect on elongation of primary root
Oc1cccc(CNc2nc(F)nc3c2ncn3C2CCCCO2)c1 (stereo not drawn) [Compound 65, 2-Fluoro-6-[(3-hydroxybenzyl)amino]-9-(tetrahydro-2H-pyran-2-yl)-9H-purine] |  |  |  |  |  | > 167 | > 167 | did not caused the inhibition of root | 102.9 (±11.0) % | 40.6 (±2.1) % | 31.3 (±1.8) % | > 167 | 187.3 (± 18) % | 121.6 (± 7) % | 10^-7 mol.1^-1 | 10^-6 mol.1^-1 | 128 | 10^-5 mol.l^-1 | 32.6 (± 6) % | 
Oc1cccc(CNc2ncnc3[nH]cnc23)c1 [meta-topolin, reference compound] |  |  |  |  |  |  |  |  | 67.1 (±7.2) % | 33.9 (±2.0) % | 19.3 (±2.3) % |  |  |  |  |  |  |  |  | CC50 at 72 h ([3]; nih3t3 cells): 167 µM; CC50 at 72 h ([4]; bj fibroblasts): 166 µM; CC50 at 72 h [6, 12]: > 167 µM; CC50 at 72 h ([6]; Cytotoxicity IC50, B10A.4, second column headed B10A.4): 178 µM
Fc1nc(NCc2ccco2)c2ncn(C3CCCCO3)c2n1 (stereo not drawn) [Compound 57, 2-Fluoro-6-furfurylamino-9-(tetrahydro-2H-pyran-2-yl)-9H-purine] |  |  |  |  |  | 138 | 132 |  |  |  |  | 149 | 183.9 (± 24) % | 112.8 (± 11) % | 10^-7 mol.1^-1 | 10^-6 mol.1^-1 | 111 | 10^-6 mol.l^-1 | 68.4 (± 8) % | 
C/C(=C\CO)CNc1nc(F)nc2c1ncn2C1CCCO1 (stereo not drawn) [Compound 6] | > 167 | > 167 | > 167 | 10^-4 mol.l^-1 | 138.2 (± 17) % |  |  |  |  |  |  |  | 167.2 (± 14) % | 121.2 (± 6) % | 10^-7 mol.1^-1 | 10^-6 mol.1^-1 |  | 10^-5 mol.l^-1 | 48.5 (± 6) % | 
